Among the data in US20230250096A1, “SUBSTITUTED PHENYL-1H-PYRROLO[2,3-c] PYRIDINE DERIVATIVES” (Janssen Pharmaceutica NV, priority 2021, published 2023) are IC50 values, retold here.

For the test, the target named is T1, menin/MLL (terbium chelate-labeled menin, FITC-MBM1 peptide) (Homo sapiens, UniProt O00255, T541A).
T1 construct: Menin (a.a 1-610-6xhis tag, 2.3 mg/mL in 20 mM Hepes)
T1 sequence (O00255 with tags, fused parts or gaps T541A): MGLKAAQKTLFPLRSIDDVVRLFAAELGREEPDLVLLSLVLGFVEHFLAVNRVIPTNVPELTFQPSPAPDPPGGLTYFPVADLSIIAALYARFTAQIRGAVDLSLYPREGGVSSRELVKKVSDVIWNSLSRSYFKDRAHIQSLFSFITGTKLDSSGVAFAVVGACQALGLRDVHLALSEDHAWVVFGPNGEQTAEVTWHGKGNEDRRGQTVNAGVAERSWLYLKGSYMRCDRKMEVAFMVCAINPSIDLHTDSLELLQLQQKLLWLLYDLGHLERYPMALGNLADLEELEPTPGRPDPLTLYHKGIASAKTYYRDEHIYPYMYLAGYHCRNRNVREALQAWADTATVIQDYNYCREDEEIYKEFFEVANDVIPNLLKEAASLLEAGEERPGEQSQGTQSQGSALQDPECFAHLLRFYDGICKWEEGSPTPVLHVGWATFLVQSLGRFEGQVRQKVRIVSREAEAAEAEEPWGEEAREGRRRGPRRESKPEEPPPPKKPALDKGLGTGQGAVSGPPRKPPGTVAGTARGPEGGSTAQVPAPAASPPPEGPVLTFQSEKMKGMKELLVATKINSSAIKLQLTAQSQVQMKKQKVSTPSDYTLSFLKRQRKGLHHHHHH
As to the kind of experiment: Menin/MLL homogenous time-resolved fluorescence (HTRF) assay. It is filed as binding. The conditions noted are these: 30 min incubation. The method, boiled down:
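Competition binding read by time-resolved FRET (FITC 520 nm over terbium 490 nm) after compound meets labeled menin 1-610-His […] for 30 min, then FITC-MBM1 (75 nM) for 15 min, ambient temperature, 0.5% DMSO. Eleven-point four-fold dilutions, usually starting at 10 μM, fitted to four-parameter curves for IC50.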

Usually IC50 stands for the concentration that inhibits the measured activity by half. A lower IC50 goes with inhibition by little substance. In the case of `Cc1cncc2c1c(CC1CCN(CC3CCN(C(=O)CC#N)CC3)C1)cn2-c1ccc(F)cc1C(=O)N(C)C(C)C` (single isomer, unassigned) [Compound 60], the IC50 is less than 0.0095 nM.
Consider `CNC(=O)[C@H]1CC[C@H](CN2CCC(Cc3cn(-c4ccc(F)cc4C(=O)N(C)C(C)C)c4cncc(C)c34)C2)CC1` (single isomer, unassigned) [Compound 70], for which the IC50 came to 0.114 nM.
The compound `Cc1cncc2c1c(C[C@H]1CCN(C(C)C3CCOCC3)C1)cn2-c1ccc(F)cc1C(=O)N(C)C(C)C` (mixture of isomers) [Compound 49] showed an IC50 of 0.048 nM.
The compound `CCN(C(=O)c1cc(F)ccc1-n1cc(CC2CN(C(C(C)C)[C@H]3C[C@@H](N4C[C@H]5CN(C(C)=O)C[C@@H]5C4)C3)C2)c2c(C)cncc21)C(C)C` (mixture of isomers) [Compound 38a] came in with an IC50 of 0.036 nM.
As for `Cc1cncc2c1c(C[C@@H]1CCN(CC3CCOCC3)C1)cn2-c1ccc(F)cc1C(=O)N(CCO)C(C)C` [Compound 357], the figure is 0.035 nM; as for `CNC(=O)[C@H]1CC[C@H](CN2CCC(Cc3cn(-c4ccc(F)cc4C(=O)N(C)C(C)C)c4cncc(C)c34)C2)CC1` (single isomer, unassigned) [Compound 71], 0.202 nM; as for `COCCN(C)CCCC(C(C)C)N1CC[C@@H](Cc2cn(-c3ccc(F)cc3C(=O)N(C)C(C)C)c3cncc(C)c23)C1` (some centres unmarked) [Compound 1], 0.033 nM.
For `Cc1cncc2c1c(CC1CN(CC3CCOCC3)C1)cn2-c1ccc(F)cc1C(=O)N(C)C(C)C` [Compound 61] the value was 0.132 nM; for `Cc1cncc2c1c(C[C@@H]1CCN(CC(C)C)C1)cn2-c1ccc(F)cc1C(=O)N(C)C(C)C` (single isomer, unassigned) [Compound 44], 0.06 nM; for `CCN(C(=O)c1cc(F)ccc1-n1cc(CC2CN(C(C(C)C)[C@H]3C[C@@H](N4CCN(S(C)(=O)=O)CC4)C3)C2)c2c(C)cncc21)C(C)C` (some centres unmarked) [Compound 37a], 0.126 nM.
For `Cc1cncc2c1c(C[C@H]1CCN(C[C@H]3CC[C@H](NS(C)(=O)=O)CC3)C1)cn2-c1ccc(F)cc1C(=O)N(C)C(C)C` (single isomer, unassigned) [Compound 69] the value was 0.049 nM.
As for `CC(=O)N1CCC(CN2CC[C@@H](Cc3cn(-c4ccc(F)cc4C(=O)N(C)C(C)C)c4cncc(C)c34)C2)CC1` (single isomer, unassigned) [Compound 50], the IC50 worked out at 0.079 nM.
As for `CC(=O)N1C[C@@H]2CN([C@H]3C[C@@H]([C@@H](C(C)C)N4CC(Cc5cn(-c6ccc(F)cc6C(=O)N(C)C(C)C)c6cncc(Cl)c56)C4)C3)C[C@H]2C1` (single isomer, unassigned) [Compound 39a], the figure is 0.034 nM; as for `COCC(=O)N1CCC(CN2CCC(Cc3cn(-c4ccc(F)cc4C(=O)N(C)C(C)C)c4cncc(C)c34)C2)CC1` (single isomer, unassigned) [Compound 59], 0.054 nM; as for `Cc1cncc2c1c(CC1CN(CC3CCN(C(=O)CC#N)CC3)C1)cn2-c1ccc(F)cc1C(=O)N(C)C(C)C` [Compound 67], roughly 0.043 nM.
As for `CC(=O)N1CCN([C@H]2C[C@@H]([C@@H](C(C)C)N3CC(Cc4cn(-c5ccc(F)cc5C(=O)N(C)C(C)C)c5cncc(C)c45)C3)C2)CC1` (single isomer, unassigned) [Compound 32a], the figure is 0.062 nM.
For `CC(=O)N1CCC(CN2CCC(Cc3cn(-c4ccc(F)cc4C(=O)N(C)C(C)C)c4cncc(C)c34)CC2)CC1` [Compound 58] the value was 0.135 nM; for `COCC(=O)N1CCC(CN2CC(Cc3cn(-c4ccc(F)cc4C(=O)N(C)C(C)C)c4cncc(C)c34)C2)CC1` [Compound 66], 0.037 nM.
On to `Cc1cncc2c1c(C[C@H]1CCN(CC3CCOCC3)C1)cn2-c1ccc(F)cc1C(=O)N(C)C(C)C` (single isomer, unassigned) [Compound 43], for which the IC50 came to 0.027 nM.
As for `CC(C)C([C@H]1C[C@@H](N(C)C)C1)N1CC(Cc2cn(-c3ccc(F)cc3C(=O)N(C)C(C)C)c3cncc(Cl)c23)C1` (some centres unmarked) [Compound 41], the IC50 was found to be 0.202 nM.
For `Cc1cncc2c1c(CC1CN([C@@H](C(C)C)[C@H]3C[C@@H](N4CCC(S(C)(=O)=O)CC4)C3)C1)cn2-c1ccc(F)cc1C(=O)N(C)C(C)C` [Compound 33a] the value was 0.07 nM.
As for `Cc1cncc2c1c(C[C@H]1CCN(CC(C)C)C1)cn2-c1ccc(F)cc1C(=O)N(C)C(C)C` (single isomer, unassigned) [Compound 45], the figure is 0.054 nM.
For `Cc1cncc2c1c(C[C@@H]1CCN(CC3CCOCC3)C1)cn2-c1ccc(F)cc1C(=O)N(C[C@H](C)O)C(C)C` (single isomer, unassigned) [Compound 365b] the value was 0.081 nM; for `CC(=O)N1CCC(CN2CC(Cc3cn(-c4ccc(F)cc4C(=O)N(C)C(C)C)c4cncc(C)c34)C2)CC1` [Compound 63], 0.176 nM; for `Cc1cncc2c1c(C[C@H]1CCN([C@@H](C)C3CCOCC3)C1)cn2-c1ccc(F)cc1C(=O)N(C)C(C)C` (single isomer, unassigned) [Compound 49b], 0.06 nM.
Turning to `Cc1cncc2c1c(C[C@@H]1CCN(CC3CCOCC3)C1)cn2-c1ccc(F)cc1C(=O)N(C)C(C)C` (single isomer, unassigned) [Compound 42], the IC50 worked out at 0.03 nM.
